Test systems include ACHN renal; NCI/ADR-RES ovarian; TK-10 renal; NCI-H460 lung; NCI-H23 lung; SF-268 CNS; OVCAR-8 ovarian; IGROV1 ovarian; BT-549 breast; MALME-3M melanoma.
Assay in all cases: growth of human tumour cells (NCI), 48 h

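Growth conditions: 96-well plates. Treatment: test compound, 48 hours, 5 concentrations. Analysis: linear interpolation between bracketing concentrations; unreached endpoints set to highest concentration. GI50 marks 50% less growth. TGI: concentration producing complete growth inhibition.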

For `Cn1cc(CO)c2c1C(=O)C=C(N1CC1)C2=O`, the GI50 was < 0.01 µM with ACHN renal; 0.0291 µM in the assay on NCI/ADR-RES ovarian; 0.0215 µM with TK-10 renal; < 0.01 µM with NCI-H460 lung; < 0.01 µM in the assay with NCI-H23 lung; < 0.0154 µM in the assay with SF-268 CNS. The GI50 in the assay with OVCAR-8 ovarian is < 0.01 µM; in the assay on IGROV1 ovarian, < 0.0104 µM; in the assay on BT-549 breast it was < 0.0128 µM. Besides, the TGI is 0.0102 µM in the assay on ACHN renal; 0.275 µM in the assay with NCI/ADR-RES ovarian; 1.27 µM in the assay with NCI-H460 lung; < 0.0215 µM in the assay on NCI-H23 lung; 2.35 µM in the assay on SF-268 CNS; 3.58 µM with OVCAR-8 ovarian. In addition, the TGI in the assay on IGROV1 ovarian came to 1.8 µM; with BT-549 breast it was 0.133 µM.

`CS(=O)(=O)Nc1ccc2c(c1)oc(=O)c1ccccc12`: the TGI in the assay on ACHN renal, in the assay on NCI/ADR-RES ovarian, in the assay on MALME-3M melanoma, with NCI-H460 lung, in the assay on NCI-H23 lung and in the assay with SF-268 CNS was > 100 µM throughout. Besides, the TGI in the assay with OVCAR-8 ovarian, with IGROV1 ovarian and in the assay on BT-549 breast was > 100 µM each time.

Consider `COc1cc2nc(-c3ccc(Cl)cc3)cc(OCCCN3CCCCC3)c2cc1OC`, for which the GI50 in the assay with ACHN renal is 2.45 µM; in the assay with NCI/ADR-RES ovarian, 0.898 µM; with TK-10 renal, 3.73 µM; in the assay on MALME-3M melanoma, 1.74 µM; in the assay on NCI-H460 lung, 0.842 µM; with NCI-H23 lung it was 2.95 µM. Besides, the results for the GI50 in the assay with SF-268 CNS, in the assay with OVCAR-8 ovarian and in the assay on IGROV1 ovarian were 3.2 µM, 1.77 µM and 0.838 µM, respectively. Besides, the TGI was > 100 µM in the assay with ACHN renal; > 100 µM with NCI/ADR-RES ovarian; > 100 µM in the assay on TK-10 renal; 4.53 µM in the assay on MALME-3M melanoma; > 100 µM in the assay with NCI-H460 lung; > 100 µM with NCI-H23 lung. In addition, the TGI with SF-268 CNS, with OVCAR-8 ovarian and in the assay with IGROV1 ovarian was > 100 µM in each case.

On to `C=C1C(=O)O[C@@H]2C[C@@H]1CC/C(C)=C/CC/C(C)=C/CC[C@@]2(C)O`, for which the GI50 was 13 µM with ACHN renal; 9.28 µM in the assay on NCI/ADR-RES ovarian; 16.5 µM in the assay on NCI-H460 lung; 4.14 µM in the assay on NCI-H23 lung; 16.3 µM with SF-268 CNS; 21.7 µM in the assay on OVCAR-8 ovarian. The GI50 in the assay on IGROV1 ovarian is 0.766 µM; in the assay with BT-549 breast it was 21.1 µM. The TGI with ACHN renal worked out at 28.1 µM; with NCI/ADR-RES ovarian, 24.4 µM; in the assay with NCI-H460 lung it was 43.2 µM; in the assay with NCI-H23 lung, 16.2 µM; in the assay on SF-268 CNS it was 35.6 µM; in the assay on OVCAR-8 ovarian, 85.4 µM. For the same compound, the values for the TGI in the assay on IGROV1 ovarian and with BT-549 breast were 20.2 µM and 40.4 µM, respectively.

Regarding `COc1cnc2c(c1)C(=O)c1c-2n(CCCNC(C)C)c(=O)c2cc(Cl)ccc12`, the GI50 was 0.301 µM with NCI/ADR-RES ovarian; 1.5 µM with MALME-3M melanoma; 0.0372 µM with NCI-H460 lung; 0.148 µM with SF-268 CNS; 0.286 µM in the assay with OVCAR-8 ovarian; 0.756 µM with IGROV1 ovarian. Moreover, the GI50 in the assay with BT-549 breast was 0.698 µM. For the same compound, the TGI in the assay with NCI/ADR-RES ovarian was 2.75 µM; in the assay with MALME-3M melanoma it was 3.07 µM; in the assay with NCI-H460 lung it was 1.2 µM; in the assay with SF-268 CNS, 1.94 µM; in the assay with OVCAR-8 ovarian, 2.13 µM; in the assay with IGROV1 ovarian, 2.32 µM. Also, the TGI in the assay with BT-549 breast worked out at 2.59 µM.

Turning to `C=C(CNCc1ccccc1)c1ccc(C(=O)Nc2ccccc2N)cc1`, the GI50 in the assay with ACHN renal is 9.79 µM; in the assay with NCI/ADR-RES ovarian, 3.21 µM; in the assay on TK-10 renal it was 4.68 µM; with NCI-H460 lung it was > 100 µM; in the assay with NCI-H23 lung, 2.37 µM; in the assay on SF-268 CNS, 7.43 µM. Moreover, the GI50 in the assay on OVCAR-8 ovarian is 2.17 µM; with IGROV1 ovarian, 3.21 µM; in the assay with BT-549 breast, 15.4 µM. In addition, the TGI is 84.3 µM in the assay with ACHN renal; 18.8 µM in the assay on NCI/ADR-RES ovarian; 21.7 µM in the assay on TK-10 renal; > 100 µM with NCI-H460 lung; 8.23 µM in the assay on NCI-H23 lung; 45.6 µM in the assay on SF-268 CNS. In addition, the TGI in the assay on OVCAR-8 ovarian is > 100 µM; in the assay with IGROV1 ovarian, 36.9 µM; with BT-549 breast, > 100 µM.

As for `COc1cc(C2CC(c3cccc(Br)c3)=NN2C(C)=O)cc(OC)c1OC` (stereo not drawn), the GI50 with ACHN renal is 0.71 µM; with NCI/ADR-RES ovarian, 0.324 µM; in the assay on TK-10 renal, 16.5 µM; in the assay on NCI-H460 lung, 0.344 µM; in the assay with NCI-H23 lung it was 1.66 µM; with SF-268 CNS, 0.785 µM. Further, the GI50 is 0.618 µM in the assay on OVCAR-8 ovarian, 2.04 µM in the assay with IGROV1 ovarian and 10.2 µM with BT-549 breast. The TGI in the assay on ACHN renal is > 84.4 µM; with NCI/ADR-RES ovarian, 34 µM; in the assay with TK-10 renal, 72.2 µM; in the assay on NCI-H460 lung, 11.7 µM; with NCI-H23 lung, > 81.3 µM; with SF-268 CNS it was 83.3 µM. The TGI with OVCAR-8 ovarian was > 46.2 µM; with IGROV1 ovarian, > 100 µM; with BT-549 breast, 40.7 µM.

As for `CNC(=O)N(C)N=NCCCl`, the TGI in the assay with ACHN renal, in the assay on NCI/ADR-RES ovarian, in the assay with TK-10 renal, in the assay with MALME-3M melanoma, with NCI-H460 lung and with NCI-H23 lung was > 100 µM throughout. Moreover, the TGI in the assay with SF-268 CNS, in the assay on OVCAR-8 ovarian and in the assay with IGROV1 ovarian was > 100 µM throughout.

Regarding `CN(C)N=Nc1ccc(NC=O)cc1`, the TGI with ACHN renal, in the assay on NCI/ADR-RES ovarian, in the assay on TK-10 renal, with NCI-H460 lung, with OVCAR-8 ovarian and with IGROV1 ovarian was > 100 µM each time. The TGI in the assay on BT-549 breast was > 100 µM.

For `Cn1c2ccccc2c2c3c(c4c5cc(Br)ccc5n(C)c4c21)C(=O)N(O)C3=O`, the GI50 is 0.0346 µM with ACHN renal; 0.0926 µM with NCI/ADR-RES ovarian; 27.7 µM in the assay with TK-10 renal; 0.494 µM with MALME-3M melanoma; 0.048 µM in the assay with NCI-H460 lung; 0.113 µM in the assay with OVCAR-8 ovarian. The GI50 in the assay with IGROV1 ovarian was 0.284 µM. The TGI with ACHN renal is 0.124 µM; in the assay on NCI/ADR-RES ovarian, > 100 µM; in the assay on TK-10 renal it was > 100 µM; with MALME-3M melanoma, > 100 µM; in the assay with NCI-H460 lung, 1.08 µM; in the assay with OVCAR-8 ovarian, > 100 µM. Further, the TGI in the assay on IGROV1 ovarian was > 100 µM.

Turning to `NC(=Nc1c([N+](=O)[O-])cnc2ccccc12)N1CCOCC1`, the TGI in the assay on ACHN renal, with NCI/ADR-RES ovarian, in the assay on TK-10 renal, with NCI-H460 lung, with NCI-H23 lung and in the assay with SF-268 CNS was > 100 µM throughout. For the same compound, the TGI in the assay on OVCAR-8 ovarian, in the assay on IGROV1 ovarian and in the assay with BT-549 breast was > 100 µM in each case.

Consider `Cc1ccc(Cc2c(=O)[nH]nc3ccccc23)cc1`, for which the TGI in the assay on ACHN renal, in the assay with TK-10 renal, in the assay with MALME-3M melanoma, with NCI-H460 lung, in the assay on NCI-H23 lung and with SF-268 CNS was > 100 µM in each case. Besides, the TGI in the assay with OVCAR-8 ovarian and with IGROV1 ovarian was > 100 µM in each case.

As for `CC(C)N(C(=O)C12C3C4C5(C#N)C3C1(C#N)C5C42I)C(C)C` (stereo not drawn), the TGI with ACHN renal, in the assay on TK-10 renal, with MALME-3M melanoma, with NCI-H460 lung, in the assay on NCI-H23 lung and in the assay with SF-268 CNS was > 100 µM each time. The TGI with OVCAR-8 ovarian and with IGROV1 ovarian was > 100 µM throughout.

Turning to `COc1cc(C(Cc2ccccc2)NC(C)=O)oc(=O)c1` (stereo not drawn), the TGI with ACHN renal, in the assay on TK-10 renal, with MALME-3M melanoma, in the assay on NCI-H460 lung, with NCI-H23 lung and in the assay with SF-268 CNS was > 100 µM throughout. Moreover, the TGI in the assay with OVCAR-8 ovarian and in the assay with IGROV1 ovarian was > 100 µM in each case.

Consider `CC(C)(C)CC(C)(C)c1cc2c(O)c(c1)Cc1cc(C(C)(C)CC(C)(C)C)cc(c1O)Cc1cc(C(C)(C)CC(C)(C)C)cc(c1O)Cc1cc(C(C)(C)CC(C)(C)C)cc(c1O)C2`, for which the TGI with ACHN renal, in the assay with TK-10 renal, in the assay with MALME-3M melanoma, in the assay with NCI-H460 lung, in the assay on NCI-H23 lung and in the assay on SF-268 CNS was > 100 µM throughout. Besides, the TGI in the assay with OVCAR-8 ovarian and with IGROV1 ovarian was > 100 µM in each case.

Regarding `CC(=O)c1cccc(NC(=O)C(=O)NNc2n[nH]c(=S)n2N)c1`, the TGI in the assay with ACHN renal is 19.7 µM; in the assay with TK-10 renal, 69.9 µM; with MALME-3M melanoma, 5.18 µM; in the assay on NCI-H460 lung it was 13.3 µM; with NCI-H23 lung, 11.4 µM; in the assay on SF-268 CNS, 27.7 µM. For the same compound, the TGI in the assay on OVCAR-8 ovarian is 24.1 µM; with IGROV1 ovarian, 25.8 µM; with BT-549 breast it was 6.65 µM.

As for `CCOC(=O)CCCn1c(SC)nc2[nH]cc(-c3ccccc3)c2c1=O`, the GI50 in the assay with ACHN renal is 8.09 µM; in the assay on NCI/ADR-RES ovarian, 18.9 µM; with TK-10 renal, 46.1 µM; with MALME-3M melanoma, 15.1 µM; in the assay with NCI-H460 lung it was 33.6 µM; in the assay on NCI-H23 lung, 11.6 µM. Besides, the GI50 is 20.8 µM in the assay with SF-268 CNS, 19 µM in the assay with OVCAR-8 ovarian and 16.5 µM in the assay with IGROV1 ovarian. Also, the TGI is 43.2 µM in the assay on ACHN renal; 53.1 µM in the assay with NCI/ADR-RES ovarian; > 100 µM in the assay with TK-10 renal; 42.1 µM with MALME-3M melanoma; > 100 µM in the assay on NCI-H460 lung; 34.6 µM in the assay with NCI-H23 lung. Besides, the TGI in the assay with SF-268 CNS came out at 87.8 µM; in the assay with OVCAR-8 ovarian, 58.9 µM; with IGROV1 ovarian, 47 µM.

Source of the values: PubChem BioAssay (NCI).
